Patent publication US20180071317A1, “USE OF AGENTS THAT ALTER THE PERITUMORAL ENVIRONMENT FOR THE TREATMENT OF CANCER” (SERVICIO ANDALUZ DE SALUD, priority 2011, published 2018)

Assays:
[1] = tested on: human primary fibroblasts (PHF); assay: Marker expression (immunohistochemistry) in human primary fibroblasts with SP alone or with NK1 antagonists; format: cell-based; conditions: SP 1 μM + antagonist 1 μM; 48 h;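 note: primary human dermal fibroblasts, immunostained with rabbit polyclonal antibodies against each marker, value is percentage of stained cells among all cells counted in 20 fields at 400× per section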
[2] = tested on: fibroblasts (PHF) cells co-cultured with human T lymphoma tumor (DERL-7); assay: Marker expression (IHC) in PHF co-cultured with DERL-7 tumor cells; format: cell-based; conditions: PHF co-cultured with DERL-7 + SP + NK1 antagonist
[3] = tested on: fibroblast cells in co-culture with cells isolated from primary human tumors; assay: Marker expression (IHC) in fibroblasts co-cultured with primary human tumor cells (colon, pancreatic, lung carcinoma, glioma, multiple myeloma); format: cell-based
[4] = tested on: fibroblasts (PHF) co-cultured with tumor cells of lung carcinoma (A-427); assay: Marker expression (IHC) in PHF co-cultured with A-427 tumor cells; format: cell-based, human; conditions: co-culture with A-427 lung carcinoma; SP 1 μM + antagonist 1 μM; 48 h;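 note: cultures grown in human blood plasma from a healthy donor, value is the percentage of fibroblasts positive for each marker, six replicates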
Experimental: (§1) All cultures were maintained 48 hours, following which the same cells were included in paraffin blocks for subsequent analysis of the expression of different markers by immunohistochemistry (see Example 1). […] All experiments were carried out sixfold. Analyzed markers in fibroblast cells (stromal cells) were: TGF-α, TGF-β1, TGF-β2, TGF-β3, SPARC, MMP-3, MMP-7, MMP-9, MMP-11, MMP-13 and MMP-14.

[5] = tested on: fibroblasts (PHF) co-cultured with tumor cells of human cervix carcinoma (KB); assay: Marker expression (IHC) in PHF co-cultured with KB tumor cells; format: cell-based; conditions: co-culture with KB; SP 1 μM + antagonist 1 μM; 48 h;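 note: percentage of PHF fibroblasts showing expression of each marker, cultured in fresh blood plasma from a healthy human donor, six replicates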
Experimental: as §1

[6] = tested on: fibroblasts (PHF) co-cultured with tumor cells of human breast carcinoma (MCF-7); assay: Marker expression (IHC) in PHF co-cultured with MCF-7 tumor cells; format: cell-based; conditions: co-culture with MCF-7; SP 1 μM + antagonist 1 μM; 48 h;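 note: value is the percentage of fibroblasts positive for each marker, with fibroblasts cultured alone as reference, grown in fresh plasma from a healthy donor, six replicates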
Experimental: as §1

[7] = tested on: fibroblasts (PHF) co-cultured with tumor cells, ovarian carcinoma (EFO-27); assay: Marker expression (IHC) in PHF co-cultured with EFO-27 tumor cells; format: cell-based, human; conditions: co-culture with EFO-27; SP 1 μM + antagonist 1 μM; 48 h;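 note: values are the percentage of PHF fibroblasts positive for each marker, cultured in fresh plasma from a healthy human donor, each experiment run in six replicates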
Experimental: as §1

[8] = tested on: fibroblasts (PHF) co-cultured with human glioma tumor cells (GAMG); assay: Marker expression (IHC) in PHF co-cultured with GAMG tumor cells; format: cell-based; conditions: co-culture with GAMG; SP 1 μM + antagonist 1 μM; 48 h;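 note: percentage of PHF fibroblasts positive for each marker, cultured in fresh plasma from a healthy donor, six replicates, with fibroblasts cultured alone as reference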
Experimental: as §1

[9] = tested on: fibroblasts (PHF) co-cultured with tumor cells of human pancreatic adenocarcinoma (CAPAN-1); assay: Marker expression (IHC) in PHF co-cultured with CAPAN-1 tumor cells; format: cell-based; conditions: co-culture with CAPAN-1; SP 1 μM + antagonist 1 μM; 48 h;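 note: cultures grown in fresh plasma from a healthy human donor, run in six replicates, value is percent of fibroblasts positive for each marker, compared with fibroblasts cultured alone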
Experimental: All cultures were maintained 48 hours, following which the same cells were included in paraffin blocks for subsequent analysis of the expression of different markers by immunohistochemistry (see Example 1). The primary antibodies used to perform immunohistochemical assays and their concentration are detailed in Example 2. All experiments were carried out sixfold. Analyzed markers in fibroblast cells (stromal cells) were: TGF-α, TGF-β1, TGF-β2, TGF-β3, SPARC, MMP-3, MMP-7, MMP-9, MMP-11, MMP-13 and MMP-14.

[10] = Primary tumor cells (colon carcinoma) co-cultured + fibroblast + SP (1 μM) + NK1 antagonist 1 μM
[11] = co-culture with cells isolated from glioma, SP 1 μM + antagonist 1 μM
[12] = co-culture with cells isolated from lung cancer, SP 1 μM + antagonist 1 μM
[13] = co-culture with cells isolated from multiple myeloma, SP 1 μM + antagonist 1 μM
[14] = co-culture with cells isolated from pancreatic carcinoma, SP 1 μM + antagonist 1 μM

CC(=O)N1CCN([C@H]2CCN(C(=O)N(C)[C@H](C)c3cc(C(F)(F)F)cc(C(F)(F)F)c3)[C@@H](c3ccc(F)cc3C)C2)CC1 [Casopitant]
0%: PHF cells expressing MMP-3 [1] | PHF cells expressing MMP-7 [1] | PHF cells expressing MMP-9 [1] | PHF cells expressing MMP-11 [1] | PHF cells expressing MMP-13 [1] | PHF cells expressing MMP-14 [1] | PHF cells expressing SPARC [1] | PHF cells expressing TGFα [1] | PHF cells expressing TGFβ 1 [1] | PHF cells expressing TGFβ 2 [1] | PHF cells expressing TGFβ 3 [1] | cells expressing MMP-3 [2] | cells expressing MMP-7 [2] | cells expressing MMP-9 [2] | cells expressing MMP-11 [2] | cells expressing MMP-13 [2] | cells expressing MMP-14 [2] | cells expressing SPARC [2] | cells expressing TGF-α [2] | cells expressing TGF-β1 [2] | cells expressing TGF-β2 [2] | cells expressing TGF-β3 [2] | Percentage of fibroblast cells which expressed MMP-3 [3, 10] | Percentage of fibroblast cells which expressed MMP-7 [3, 10] | Percentage of fibroblast cells which expressed MMP-9 [3, 10] | Percentage of fibroblast cells which expressed MMP-11 [3, 10] | Percentage of fibroblast cells which expressed MMP-13 [3, 10] | Percentage of fibroblast cells which expressed MMP-14 [3, 10] | Percentage of fibroblast cells which expressed SPARC [3, 10] | Percentage of fibroblast cells which expressed TGFα [3, 10] | Percentage of fibroblast cells which expressed TGFβ1 [3, 10] | Percentage of fibroblast cells which expressed TGFβ2 [3, 10] | Percentage of fibroblast cells which expressed TGFβ3 [3, 10] | Percentage of fibroblast cells which expressed MMP-3 [3, 11] | Percentage of fibroblast cells which expressed MMP-7 [3, 11] | Percentage of fibroblast cells which expressed MMP-9 [3, 11] | Percentage of fibroblast cells which expressed MMP-11 [3, 11] | Percentage of fibroblast cells which expressed MMP-13 [3, 11] | Percentage of fibroblast cells which expressed MMP-14 [3, 11] | Percentage of fibroblast cells which expressed SPARC [3, 11] | Percentage of fibroblast cells which expressed TGFα [3, 11] | Percentage of fibroblast cells which expressed TGFβ1 [3, 11] | Percentage of fibroblast cells which expressed TGFβ2 [3, 11] | Percentage of fibroblast cells which expressed TGFβ3 [3, 11] | Percentage of fibroblast cells which expressed MMP-3 [3, 12] | Percentage of fibroblast cells which expressed MMP-7 [3, 12] | Percentage of fibroblast cells which expressed MMP-9 [3, 12] | Percentage of fibroblast cells which expressed MMP-11 [3, 12] | Percentage of fibroblast cells which expressed MMP-13 [3, 12] | Percentage of fibroblast cells which expressed MMP-14 [3, 12] | Percentage of fibroblast cells which expressed SPARC [3, 12] | Percentage of fibroblast cells which expressed TGFα [3, 12] | Percentage of fibroblast cells which expressed TGFβ1 [3, 12] | Percentage of fibroblast cells which expressed TGFβ2 [3, 12] | Percentage of fibroblast cells which expressed TGFβ3 [3, 12] | Percentage of fibroblast cells which expressed MMP-3 [3, 13] | Percentage of fibroblast cells which expressed MMP-7 [3, 13] | Percentage of fibroblast cells which expressed MMP-9 [3, 13] | Percentage of fibroblast cells which expressed MMP-11 [3, 13] | Percentage of fibroblast cells which expressed MMP-13 [3, 13] | Percentage of fibroblast cells which expressed MMP-14 [3, 13] | Percentage of fibroblast cells which expressed SPARC [3, 13] | Percentage of fibroblast cells which expressed TGFα [3, 13] | Percentage of fibroblast cells which expressed TGFβ1 [3, 13] | Percentage of fibroblast cells which expressed TGFβ2 [3, 13] | Percentage of fibroblast cells which expressed TGFβ3 [3, 13] | Percentage of fibroblast cells which expressed MMP-3 [3, 14] | Percentage of fibroblast cells which expressed MMP-7 [3, 14] | Percentage of fibroblast cells which expressed MMP-9 [3, 14] | Percentage of fibroblast cells which expressed MMP-11 [3, 14] | Percentage of fibroblast cells which expressed MMP-13 [3, 14] | Percentage of fibroblast cells which expressed MMP-14 [3, 14] | Percentage of fibroblast cells which expressed SPARC [3, 14] | Percentage of fibroblast cells which expressed TGFα [3, 14] | Percentage of fibroblast cells which expressed TGFβ1 [3, 14] | Percentage of fibroblast cells which expressed TGFβ2 [3, 14] | Percentage of fibroblast cells which expressed TGFβ3 [3, 14] | PHF cells expressing MMP-3 [4] | PHF cells expressing MMP-7 [4] | PHF cells expressing MMP-9 [4] | PHF cells expressing MMP-11 [4] | PHF cells expressing MMP-13 [4] | PHF cells expressing MMP-14 [4] | PHF cells expressing SPARC [4] | PHF cells expressing TGF-α [4] | PHF cells expressing TGF-β1 [4] | PHF cells expressing TGF-β2 [4] | PHF cells expressing TGF-β3 [4] | PHF cells expressing MMP-3 [5] | PHF cells expressing MMP-7 [5] | PHF cells expressing MMP-9 [5] | PHF cells expressing MMP-11 [5] | PHF cells expressing MMP-13 [5] | PHF cells expressing MMP-14 [5] | PHF cells expressing SPARC [5] | PHF cells expressing TGF-α [5] | PHF cells expressing TGF-β1 [5] | PHF cells expressing TGF-β2 [5] | PHF cells expressing TGF-β3 [5] | PHF cells expressing MMP-3 [6] | PHF cells expressing MMP-7 [6] | PHF cells expressing MMP-9 [6] | PHF cells expressing MMP-11 [6] | PHF cells expressing MMP-13 [6] | PHF cells expressing MMP-14 [6] | PHF cells expressing SPARC [6] | PHF cells expressing TGF-α [6] | PHF cells expressing TGF-β1 [6] | PHF cells expressing TGF-β2 [6] | PHF cells expressing TGF-β3 [6] | PHF cells expressing MMP-3 [7] | PHF cells expressing MMP-7 [7] | PHF cells expressing MMP-9 [7] | PHF cells expressing MMP-11 [7] | PHF cells expressing MMP-13 [7] | PHF cells expressing MMP-14 [7] | PHF cells expressing SPARC [7] | PHF cells expressing TGF-α [7] | PHF cells expressing TGF-β1 [7] | PHF cells expressing TGF-β2 [7] | PHF cells expressing TGF-β3 [7] | PHF cells expressing MMP-3 [8] | PHF cells expressing MMP-7 [8] | PHF cells expressing MMP-9 [8] | PHF cells expressing MMP-11 [8] | PHF cells expressing MMP-13 [8] | PHF cells expressing MMP-14 [8] | PHF cells expressing SPARC [8] | PHF cells expressing TGF-α [8] | PHF cells expressing TGF-β1 [8] | PHF cells expressing TGF-β2 [8] | PHF cells expressing TGF-β3 [8] | PHF cells expressing MMP-3 [9] | PHF cells expressing MMP-7 [9] | PHF cells expressing MMP-9 [9] | PHF cells expressing MMP-11 [9] | PHF cells expressing MMP-13 [9] | PHF cells expressing MMP-14 [9] | PHF cells expressing SPARC [9] | PHF cells expressing TGF-α [9] | PHF cells expressing TGF-β1 [9] | PHF cells expressing TGF-β2 [9] | PHF cells expressing TGF-β3 [9]
